# According to patent US20030022250A1, “Functional IgE test methods and compositions” (priority 2001, published 2003):
# Test system: RBL SX-38 cells
# Experiment: [3H]5-HT release (degranulation) from labeled and sensitized RBL SX-38 cells
# Format: cell-based, rat
# Details: pre-incubation 5 minutes at 37 C; 0.1 mM NECA, 30% D2O or 5 μg/ml cytochalasin B
# Description: As specifically exemplified herein, we have labeled RBL SX-38 cells with ^3H-serotonin (5HT). A fraction of the tritiated 5-HT incorporated into cellular granules is released from the cells (in the process of degranulation) following their activation. The percentage of labeled 5-HT release, where the label is a radioactive moiety, is calculated as follows: disintegrations per minute (dpm) in the supernatant divided by the sum of the dpm in the supernatant plus the dpm in the residual cells. This formula is as follows:
# % release =100×(dpm in the supematant)/(dpm in the supernatant+dpm in the residual cells).
# For each experiment, a positive control, activation of the cells with anti-IgE is determined. The % release with anti-IgE (usually about 30-60% of the total 5-HT) is set at 100%. Degranulation with a given allergen is then expressed as a percent of that seen with anti-IgE. […]
# Triggering is initiated by adding 5 μl of allergenic extracts (diluted to the appropriate concentration) or goat anti-human-IgE (3 μg/ml). […] Non-specific background release is assessed using negative controls, which have 5 μl PIPES buffer added instead of extract or anti-IgE. After 45 minutes, the plates are then removed and the tritium content of a 50 μl aliquot from the supernatant of each sample, in 5 ml of scintillation fluid, is determined. […]
compound,measurement,value
"CCNC(=O)[C@H]1O[C@@H](n2cnc3c(N)ncnc32)[C@H](O)[C@@H]1O [NECA, N-ethylcarboxamido adenosine]",effect on threshold for triggering by allergen,lowers the threshold for triggering
